# How the values were obtained:
# Assay in all cases: Inhibition of ALDH isoenzymes (NAD(P)H formation at 340 nm, purified recombinant enzyme);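 for ALDH2 % Control at 20 μM: run at 25 °C, started by adding substrate after 2 min preincubation, with 100-200 nM ALDH2, 200 µM NAD+, 100 µM propionaldehyde, 1% DMSO in BES buffer pH 7.5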
# Assay type in all cases: biochemical
# ALDH2 = target: T1, ALDH2 (Homo sapiens, UniProt P05091); settings: compound at 20 μM; read-out: ALDH2 % Control at 20 μM;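 note: run at 25 °C, started by adding substrate after 2 min preincubation, with 100-200 nM ALDH2, 200 µM NAD+, 100 µM propionaldehyde, 1% DMSO in BES buffer pH 7.5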
# T1 sequence (P05091 18-517): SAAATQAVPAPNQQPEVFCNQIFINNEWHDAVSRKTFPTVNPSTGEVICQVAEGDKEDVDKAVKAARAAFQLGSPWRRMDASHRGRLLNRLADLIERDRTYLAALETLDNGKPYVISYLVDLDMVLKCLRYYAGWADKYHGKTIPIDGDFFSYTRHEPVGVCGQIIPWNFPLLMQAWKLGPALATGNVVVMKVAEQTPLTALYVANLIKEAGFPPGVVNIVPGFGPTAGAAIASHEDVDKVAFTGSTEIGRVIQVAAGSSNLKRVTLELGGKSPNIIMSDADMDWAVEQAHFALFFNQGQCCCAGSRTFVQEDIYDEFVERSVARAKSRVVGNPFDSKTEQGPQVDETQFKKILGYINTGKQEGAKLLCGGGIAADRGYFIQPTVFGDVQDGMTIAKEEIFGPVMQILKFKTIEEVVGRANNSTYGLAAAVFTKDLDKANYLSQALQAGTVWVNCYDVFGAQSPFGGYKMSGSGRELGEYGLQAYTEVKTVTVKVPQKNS
# ALDH1A2 = target: T2, ALDH1A2 (Homo sapiens, UniProt O94788); settings: for remaining activity at 20 µM: compound at 20 μM, read-out: ALDH1A2 % Control at 20 μM; for IC50: 100-200 nM enzyme, 200 μM NAD+, 100 μM propionaldehyde, pH 7.5, 25° C.
# T2 sequence (O94788 1-518): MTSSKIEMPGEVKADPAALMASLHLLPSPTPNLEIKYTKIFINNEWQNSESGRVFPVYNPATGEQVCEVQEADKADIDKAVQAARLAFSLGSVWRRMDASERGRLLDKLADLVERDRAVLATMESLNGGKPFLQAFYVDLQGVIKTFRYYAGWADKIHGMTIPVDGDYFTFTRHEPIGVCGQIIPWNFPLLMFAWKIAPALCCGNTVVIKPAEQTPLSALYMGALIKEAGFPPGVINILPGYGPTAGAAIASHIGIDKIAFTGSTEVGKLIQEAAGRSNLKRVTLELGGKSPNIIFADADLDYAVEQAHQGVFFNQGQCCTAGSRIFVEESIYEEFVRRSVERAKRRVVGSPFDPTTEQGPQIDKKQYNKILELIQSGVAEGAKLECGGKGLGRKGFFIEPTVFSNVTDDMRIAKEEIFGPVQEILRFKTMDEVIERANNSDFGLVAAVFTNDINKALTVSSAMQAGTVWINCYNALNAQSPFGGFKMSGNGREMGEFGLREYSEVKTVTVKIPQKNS
# ALDH1A3 = target: T3, ALDH1A3 (Homo sapiens, UniProt P47895); settings: for remaining activity at 20 µM: compound at 20 μM, read-out: ALDH1A3 % Control at 20 μM; for IC50: 100-200 nM enzyme, 200 μM NAD+, 100 μM propionaldehyde, pH 7.5, 25° C.
# T3 sequence (P47895 1-512): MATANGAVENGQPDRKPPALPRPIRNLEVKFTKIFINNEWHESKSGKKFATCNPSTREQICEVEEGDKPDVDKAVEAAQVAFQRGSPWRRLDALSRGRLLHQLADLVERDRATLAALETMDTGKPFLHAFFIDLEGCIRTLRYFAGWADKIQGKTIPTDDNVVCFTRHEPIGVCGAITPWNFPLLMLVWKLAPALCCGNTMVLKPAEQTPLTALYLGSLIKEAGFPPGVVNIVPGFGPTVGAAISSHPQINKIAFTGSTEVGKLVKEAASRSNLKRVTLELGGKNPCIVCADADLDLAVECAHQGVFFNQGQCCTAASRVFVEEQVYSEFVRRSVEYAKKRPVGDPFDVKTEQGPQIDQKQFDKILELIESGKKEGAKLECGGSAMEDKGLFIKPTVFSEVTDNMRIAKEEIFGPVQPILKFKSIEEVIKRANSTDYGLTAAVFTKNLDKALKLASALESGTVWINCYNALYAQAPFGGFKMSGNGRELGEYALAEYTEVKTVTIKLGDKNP
# ALDH1A1 = target: T4, ALDH1A1 (Homo sapiens, UniProt P00352); settings: for remaining activity at 20 µM: compound at 20 μM, read-out: ALDH1A1 % Control at 20 μM; for IC50: 100-200 nM enzyme, 200 μM NAD+, 100 μM propionaldehyde, pH 7.5, 25° C.
# T4 sequence (P00352 1-501): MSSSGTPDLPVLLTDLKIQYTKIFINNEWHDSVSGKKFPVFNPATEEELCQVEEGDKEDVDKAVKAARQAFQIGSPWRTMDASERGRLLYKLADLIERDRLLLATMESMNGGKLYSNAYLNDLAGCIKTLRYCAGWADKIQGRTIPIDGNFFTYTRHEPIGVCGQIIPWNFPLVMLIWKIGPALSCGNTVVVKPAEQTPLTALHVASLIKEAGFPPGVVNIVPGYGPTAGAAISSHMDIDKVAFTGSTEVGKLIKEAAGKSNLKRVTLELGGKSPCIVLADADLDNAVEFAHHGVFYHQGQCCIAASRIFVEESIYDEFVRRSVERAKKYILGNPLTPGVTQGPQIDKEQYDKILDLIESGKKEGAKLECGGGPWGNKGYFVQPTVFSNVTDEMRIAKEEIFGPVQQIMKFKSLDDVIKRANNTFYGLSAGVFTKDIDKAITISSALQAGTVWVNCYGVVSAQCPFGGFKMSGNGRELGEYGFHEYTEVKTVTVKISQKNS
remaining activity at 20 µM (ALDH2),remaining activity at 20 µM (ALDH1A2),remaining activity at 20 µM (ALDH1A3),remaining activity at 20 µM (ALDH1A1),IC50 (ALDH1A1),IC50 (ALDH1A2),IC50 (ALDH1A3),ALDH1A2: compound is a substrate (ALDH1A2; result in words),ALDH1A1: compound is a substrate (ALDH1A1; result in words in place of IC50),Compound
95%,30%,32%,24%,,,,,,"Cn1ncc2c(=O)n(-c3ccccc3)c(SCc3cccc(C#N)c3)nc21 [Example 53, 3-(((1-methyl-4-oxo-5-phenyl-4,5-dihydro-1H-pyrazolo[3,4-d]pyrimidin-6-yl)thio)methyl)benzonitrile]"
95%,93%,79%,,1200 nM,,,,,"Cc1ccccc1-n1c(SCc2cccc(F)c2)nc2n[nH]c(C)c2c1=O [Example 39, 6-((3-fluorobenzyl)thio)-3-methyl-5-(o-tolyl)-2H-pyrazolo[3,4-d]pyrimidin-4(5H)-one]"
96%,14%,73%,28%,,,,,,"Cn1ncc2c(=O)n(C3CCC3)c(SCc3cccc(F)c3)nc21 [Example 46, 5-cyclobutyl-6-((3-fluorobenzyl)thio)-1-methyl-1H-pyrazolo[3,4-d]pyrimidin-4(5H)-one]"
95%,46%,64%,23%,,,,,,"Cn1ncc2c(=O)n(-c3ccccc3)c(SC3CCCC3=O)nc21 (stereo not shown) [Example 75, 1-methyl-6-((2-oxocyclopentyl)thio)-5-phenyl-1H-pyrazolo[3,4-d]pyrimidin-4(5H)-one]"
94%,68%,100%,66%,,,,,,"Cc1ccccc1-n1c(NCCc2cccc(F)c2)nc2c(cnn2C)c1=O [Example 23, 6-((3-fluorophenethyl)amino)-1-methyl-5-(o-tolyl)-1H-pyrazolo[3,4-d]pyrimidin-4(5H)-one]"
177%,36%,43%,37%,,,,,,"Cn1ncc2c(=O)n(C3CCCCC3)c(SCc3cccc(F)c3)nc21 [Example 44, 5-cyclohexyl-6-((3-fluorobenzyl)thio)-1-methyl-1H-pyrazolo[3,4-d]pyrimidin-4(5H)-one]"
102%,23%,17%,22%,,,,,,"Cn1ncc2c(=O)n(-c3ccccc3)c(SC(C)(C)c3ccccc3)nc21 [Example 77, 1-methyl-5-phenyl-6-((2-phenylpropan-2-yl)thio)-1H-pyrazolo[3,4-d]pyrimidin-4(5H)-one]"
94%,25%,14%,16%,,,,,,"Cn1ncc2c(=O)n(-c3ccccc3)c(SC3CCCCC3=O)nc21 (stereo not shown) [Example 76, 1-methyl-6-((2-oxocyclohexyl)thio)-5-phenyl-1H-pyrazolo[3,4-d]pyrimidin-4(5H)-one]"
91%,,,,547 nM,130 nM,95 nM,,,"Cn1ncc2c(=O)n(-c3ccccc3)c(SCC(=O)c3ccccc3)nc21 [Example 52, 1-methyl-6-((2-oxo-2-phenylethyl)thio)-5-phenyl-1H-pyrazolo[3,4-d]pyrimidin-4(5H)-one]"
96%,0%,0%,3%,,,,,,"CC(Sc1nc2nn(C3COC3)cc2c(=O)n1-c1ccccc1)c1ccccc1 (stereo not shown) [Example 74, 2-(oxetan-3-yl)-5-phenyl-6-((1-phenylethyl)thio)-2H-pyrazolo[3,4-d]pyrimidin-4(5H)-one]"
91%,,,,400 nM,5200 nM,7500 nM,,,"CCn1cc2c(=O)n(-c3ccccc3C)c(SCc3cccc(F)c3)nc2n1 [Example 6, 2-ethyl-6-((3-fluorobenzyl)thio)-5-(o-tolyl)-2H-pyrazolo[3,4-d]pyrimidin-4(5H)-one]"
101%,65%,83%,24%,,,,,,"Cn1ncc2c(=O)n(-c3ccccc3)c(COc3cccc(F)c3)nc21 [Example 25, 6-((3-fluorophenoxy)methyl)-1-methyl-5-phenyl-1H-pyrazolo[3,4-d]pyrimidin-4(5H)-one]"
96%,96%,90%,61%,,,,,,"Cc1ccccc1-n1c(NCc2cccc(F)c2)nc2[nH]ncc2c1=O [Example 22, 6-((3-fluorobenzyl)amino)-5-(o-tolyl)-1H-pyrazolo[3,4-d]pyrimidin-4(5H)-one]"
93%,,,,350 nM,15000 nM,> 10000 nM,,,"CCn1ncc2c(=O)n(-c3ccccc3C)c(SCc3cccc(F)c3)nc21 [Example 5, 1-ethyl-6-((3-fluorobenzyl)thio)-5-(o-tolyl)-1H-pyrazolo[3,4-d]pyrimidin-4(5H)-one]"
101%,52%,37%,15%,,,,,,"Cn1ncc2c(=O)n(-c3ccccc3)c(COCc3cccc(F)c3)nc21 [Example 50, 6-(((3-fluorobenzyl)oxy)methyl)-1-methyl-5-phenyl-1H-pyrazolo[3,4-d]pyrimidin-4(5H)-one]"
95%,0%,1%,3%,,,,,,"CC(Sc1nc2c(cnn2C2COC2)c(=O)n1-c1ccccc1)c1ccccc1 (stereo not shown) [Example 73, 1-(oxetan-3-yl)-5-phenyl-6-((1-phenylethyl)thio)-1H-pyrazolo[3,4-d]pyrimidin-4(5H)-one]"
102%,,,,,3400 nM,764 nM,(slow,substrate,"Cn1ncc2c(=O)n(-c3ccccc3)c(SCc3cccc(C=O)c3)nc21 [Example 58, 3-(((1-methyl-4-oxo-5-phenyl-4,5-dihydro-1H-pyrazolo[3,4-d]pyrimidin-6-yl)thio)methyl)benzaldehyde]"
91%,,,,387 nM,139 nM,203 nM,,,"Cn1ncc2c(=O)n(-c3ccccc3)c(SCc3ccccc3)nc21 [Example 55, 6-(benzylthio)-1-methyl-5-phenyl-1H-pyrazolo[3,4-d]pyrimidin-4(5H)-one]"

# Reference: US11944626B2, “Small molecule inhibitors of ALDH and uses thereof” (The Regents of the University of Michigan, priority 2016, dated 2024)
